Measurements as given in ChEMBL document CHEMBL4507279, “Data for DCP probe BI-9627” (2021).

Columns and labels:
[1] = biological target: Insulin-like growth factor 1 receptor (Homo sapiens) (UniProt P08069); conditions: Compound concentration 1000.0 nM
[2] = biological target: Discoidin domain-containing receptor 2 (Homo sapiens) (UniProt Q16832); conditions: Compound concentration 1000.0 nM
[3] = system: Phosphatidylinositol 4,5-bisphosphate 3-kinase catalytic subunit alpha isoform (Homo sapiens), P42336 [E542K]; conditions: Compound concentration 1000.0 nM
[4] = system: Epidermal growth factor receptor (Homo sapiens), P00533 [UNDEFINED MUTATION]; conditions: Compound concentration 1000.0 nM
[5] = system: Receptor-type tyrosine-protein kinase FLT3 (Homo sapiens), P36888 [D835V]; conditions: Compound concentration 1000.0 nM
[6] = biological target: Platelet-derived growth factor receptor alpha (Homo sapiens) (UniProt P16234); conditions: Compound concentration 1000.0 nM
[7] = system: Tyrosine-protein kinase ABL1 (Homo sapiens), P00519 [T315I]; conditions: Compound concentration 1000.0 nM
[8] = biological target: 5-hydroxytryptamine receptor 1D (Homo sapiens) (UniProt P28221); conditions: Compound concentration 10.0 uM
[9] = biological target: Dual specificity protein kinase CLK1 (Homo sapiens) (UniProt P49759); conditions: Compound concentration 1000.0 nM
[10] = biological target: Misshapen-like kinase 1 (Homo sapiens) (UniProt Q8N4C8); conditions: Compound concentration 1000.0 nM
[11] = biological target: Cyclin-dependent kinase 13 (Homo sapiens) (UniProt Q14004); conditions: Compound concentration 1000.0 nM
[12] = biological target: Serine/threonine-protein kinase Nek9 (Homo sapiens) (UniProt Q8TD19); conditions: Compound concentration 1000.0 nM
[13] = biological target: RAF proto-oncogene serine/threonine-protein kinase (Homo sapiens) (UniProt P04049); conditions: Compound concentration 1000.0 nM
[14] = biological target: Serine/threonine-protein kinase Nek2 (Homo sapiens) (UniProt P51955); conditions: Compound concentration 1000.0 nM
[15] = biological target: Serine/threonine-protein kinase Nek3 (Homo sapiens) (UniProt P51956); conditions: Compound concentration 1000.0 nM
[16] = biological target: Serine/threonine-protein kinase MRCK beta (Homo sapiens) (UniProt Q9Y5S2); conditions: Compound concentration 1000.0 nM
[17] = system: Tyrosine-protein kinase ABL1 (Homo sapiens), P00519 [T315I]; conditions: Compound concentration 1000.0 nM; remark: listed apart in the source
[18] = system: Mast/stem cell growth factor receptor Kit (Homo sapiens), P10721 [V559D,T670I]; conditions: Compound concentration 1000.0 nM
[19] = system: Proto-oncogene tyrosine-protein kinase receptor Ret (Homo sapiens), P07949 [V804L]; conditions: Compound concentration 1000.0 nM
[20] = biological target: Angiopoietin-1 receptor (Homo sapiens) (UniProt Q02763); conditions: Compound concentration 1000.0 nM
[21] = biological target: T1, Alpha-2A adrenergic receptor (Homo sapiens) (UniProt P08913); conditions: Compound concentration 10.0 uM
T1 sequence (whole entry): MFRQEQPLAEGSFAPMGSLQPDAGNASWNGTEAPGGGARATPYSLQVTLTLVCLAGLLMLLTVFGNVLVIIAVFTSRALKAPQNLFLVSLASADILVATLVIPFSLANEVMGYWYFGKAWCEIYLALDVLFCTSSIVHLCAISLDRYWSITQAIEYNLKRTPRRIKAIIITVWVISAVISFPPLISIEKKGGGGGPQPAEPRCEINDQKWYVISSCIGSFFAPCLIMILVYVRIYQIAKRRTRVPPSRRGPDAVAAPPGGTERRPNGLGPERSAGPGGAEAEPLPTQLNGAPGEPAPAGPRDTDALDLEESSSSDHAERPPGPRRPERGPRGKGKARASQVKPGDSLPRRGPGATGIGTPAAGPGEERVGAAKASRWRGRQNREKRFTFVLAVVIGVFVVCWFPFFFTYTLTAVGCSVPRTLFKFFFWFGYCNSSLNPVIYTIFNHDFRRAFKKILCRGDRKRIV

[22] = biological target: Phosphatidylinositol 4,5-bisphosphate 3-kinase catalytic subunit alpha isoform (Homo sapiens) (UniProt P42336); conditions: Compound concentration 1000.0 nM
[23] = biological target: Mitogen-activated protein kinase kinase kinase kinase 4 (Homo sapiens) (UniProt O95819); conditions: Compound concentration 1000.0 nM
[24] = biological target: Histamine H4 receptor (Homo sapiens) (UniProt Q9H3N8); conditions: Compound concentration 10.0 uM
[25] = biological target: Mitogen-activated protein kinase kinase kinase kinase 1 (Homo sapiens) (UniProt Q92918); conditions: Compound concentration 1000.0 nM
[26] = biological target: SRSF protein kinase 3 (Homo sapiens) (UniProt Q9UPE1); conditions: Compound concentration 1000.0 nM
[27] = biological target: LIM domain kinase 1 (Homo sapiens) (UniProt P53667); conditions: Compound concentration 1000.0 nM
[28] = biological target: Receptor-type tyrosine-protein kinase FLT3 (Homo sapiens) (UniProt P36888); conditions: Compound concentration 1000.0 nM
[29] = biological target: 5-hydroxytryptamine receptor 6 (Homo sapiens) (UniProt P50406); conditions: Compound concentration 10.0 uM
[30] = biological target: Tyrosine-protein kinase Lck (Homo sapiens) (UniProt P06239); conditions: Compound concentration 1000.0 nM
[31] = biological target: BMP-2-inducible protein kinase (Homo sapiens) (UniProt Q9NSY1); conditions: Compound concentration 1000.0 nM
[32] = biological target: Atypical kinase COQ8B, mitochondrial (Homo sapiens) (UniProt Q96D53); conditions: Compound concentration 1000.0 nM
[33] = biological target: Tyrosine-protein kinase Blk (Homo sapiens) (UniProt P51451); conditions: Compound concentration 1000.0 nM
Rattus norvegicus = species on record: Rattus norvegicus; conditions: Compound concentration 10.0 uM
[34] = biological target: Sodium-dependent dopamine transporter (Homo sapiens, UniProt Q01959); conditions: Compound concentration 10.0 uM
[35] = system: Mast/stem cell growth factor receptor Kit (Homo sapiens), P10721 [D816H]; conditions: Compound concentration 1000.0 nM
[36] = biological target: Serine/threonine-protein kinase PAK 2 (Homo sapiens) (UniProt Q13177); conditions: Compound concentration 1000.0 nM
[37] = biological target: Serine/threonine-protein kinase DCLK3 (Homo sapiens) (UniProt Q9C098); conditions: Compound concentration 1000.0 nM
[38] = biological target: Serine/threonine-protein kinase Nek1 (Homo sapiens) (UniProt Q96PY6); conditions: Compound concentration 1000.0 nM
Sequence of Serine/threonine-protein kinase Nek1 (Homo sapiens) (Q96PY6 whole entry): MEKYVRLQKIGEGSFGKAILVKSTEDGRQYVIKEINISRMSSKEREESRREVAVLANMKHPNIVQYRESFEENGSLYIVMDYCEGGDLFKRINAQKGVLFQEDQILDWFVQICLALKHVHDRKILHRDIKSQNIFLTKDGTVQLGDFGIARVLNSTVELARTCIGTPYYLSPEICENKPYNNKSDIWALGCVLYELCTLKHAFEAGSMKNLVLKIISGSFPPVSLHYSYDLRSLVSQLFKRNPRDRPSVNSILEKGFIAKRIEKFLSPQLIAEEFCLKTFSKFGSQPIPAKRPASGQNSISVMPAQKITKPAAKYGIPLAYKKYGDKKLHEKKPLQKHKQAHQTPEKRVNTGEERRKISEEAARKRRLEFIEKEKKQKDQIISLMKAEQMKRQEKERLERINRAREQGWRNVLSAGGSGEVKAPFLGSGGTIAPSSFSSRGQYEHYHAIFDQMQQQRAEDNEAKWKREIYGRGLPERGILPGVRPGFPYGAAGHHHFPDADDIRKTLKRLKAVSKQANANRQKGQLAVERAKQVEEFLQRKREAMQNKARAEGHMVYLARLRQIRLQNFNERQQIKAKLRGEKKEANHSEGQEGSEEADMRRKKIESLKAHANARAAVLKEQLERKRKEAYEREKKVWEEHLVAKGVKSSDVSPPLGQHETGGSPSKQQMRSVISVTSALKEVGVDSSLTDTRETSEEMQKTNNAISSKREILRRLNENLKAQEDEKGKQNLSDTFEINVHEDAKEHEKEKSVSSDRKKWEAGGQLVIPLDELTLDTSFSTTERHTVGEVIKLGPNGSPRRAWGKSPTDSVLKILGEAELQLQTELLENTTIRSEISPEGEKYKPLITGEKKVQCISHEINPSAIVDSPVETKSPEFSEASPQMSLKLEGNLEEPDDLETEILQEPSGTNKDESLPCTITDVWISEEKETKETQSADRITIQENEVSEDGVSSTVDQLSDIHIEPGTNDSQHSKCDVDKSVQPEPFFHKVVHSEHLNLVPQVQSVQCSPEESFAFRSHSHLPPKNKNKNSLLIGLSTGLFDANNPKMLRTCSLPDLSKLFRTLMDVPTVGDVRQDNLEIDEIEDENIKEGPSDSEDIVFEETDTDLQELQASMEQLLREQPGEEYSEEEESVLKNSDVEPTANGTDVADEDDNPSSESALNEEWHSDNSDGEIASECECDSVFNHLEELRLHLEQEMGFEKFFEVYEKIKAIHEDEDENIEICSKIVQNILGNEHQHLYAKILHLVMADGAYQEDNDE

Sequence of Phosphatidylinositol 4,5-bisphosphate 3-kinase catalytic subunit alpha isoform (Homo sapiens), P42336 [E542K] (P42336 whole entry E542K, canonical isoform): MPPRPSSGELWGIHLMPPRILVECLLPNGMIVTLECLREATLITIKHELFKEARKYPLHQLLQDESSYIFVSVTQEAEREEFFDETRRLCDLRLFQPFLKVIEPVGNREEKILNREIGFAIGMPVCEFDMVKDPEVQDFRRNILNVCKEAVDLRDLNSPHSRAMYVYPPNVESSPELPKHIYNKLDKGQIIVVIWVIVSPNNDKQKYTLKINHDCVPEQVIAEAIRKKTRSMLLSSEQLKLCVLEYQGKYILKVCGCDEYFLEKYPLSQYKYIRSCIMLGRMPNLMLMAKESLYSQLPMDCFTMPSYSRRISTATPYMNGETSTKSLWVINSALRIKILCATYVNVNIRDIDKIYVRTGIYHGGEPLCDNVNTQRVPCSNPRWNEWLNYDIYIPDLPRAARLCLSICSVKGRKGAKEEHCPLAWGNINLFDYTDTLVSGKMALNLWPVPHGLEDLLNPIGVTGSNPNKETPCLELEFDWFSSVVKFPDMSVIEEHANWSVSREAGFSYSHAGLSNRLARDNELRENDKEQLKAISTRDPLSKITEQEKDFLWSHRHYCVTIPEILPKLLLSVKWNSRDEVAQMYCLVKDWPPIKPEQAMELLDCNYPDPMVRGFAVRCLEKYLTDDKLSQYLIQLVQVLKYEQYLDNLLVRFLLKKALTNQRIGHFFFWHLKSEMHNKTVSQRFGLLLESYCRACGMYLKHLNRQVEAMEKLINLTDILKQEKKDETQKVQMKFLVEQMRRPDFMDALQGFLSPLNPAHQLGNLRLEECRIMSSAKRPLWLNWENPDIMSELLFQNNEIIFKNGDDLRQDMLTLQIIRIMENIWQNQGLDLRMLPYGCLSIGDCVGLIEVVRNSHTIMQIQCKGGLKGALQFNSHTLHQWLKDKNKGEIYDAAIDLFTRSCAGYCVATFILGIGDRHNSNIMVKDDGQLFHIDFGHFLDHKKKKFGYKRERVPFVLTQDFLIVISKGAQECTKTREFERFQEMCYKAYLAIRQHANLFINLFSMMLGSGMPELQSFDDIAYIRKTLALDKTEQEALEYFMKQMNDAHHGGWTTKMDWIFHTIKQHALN
Sequence of RAF proto-oncogene serine/threonine-protein kinase (Homo sapiens) (P04049 whole entry): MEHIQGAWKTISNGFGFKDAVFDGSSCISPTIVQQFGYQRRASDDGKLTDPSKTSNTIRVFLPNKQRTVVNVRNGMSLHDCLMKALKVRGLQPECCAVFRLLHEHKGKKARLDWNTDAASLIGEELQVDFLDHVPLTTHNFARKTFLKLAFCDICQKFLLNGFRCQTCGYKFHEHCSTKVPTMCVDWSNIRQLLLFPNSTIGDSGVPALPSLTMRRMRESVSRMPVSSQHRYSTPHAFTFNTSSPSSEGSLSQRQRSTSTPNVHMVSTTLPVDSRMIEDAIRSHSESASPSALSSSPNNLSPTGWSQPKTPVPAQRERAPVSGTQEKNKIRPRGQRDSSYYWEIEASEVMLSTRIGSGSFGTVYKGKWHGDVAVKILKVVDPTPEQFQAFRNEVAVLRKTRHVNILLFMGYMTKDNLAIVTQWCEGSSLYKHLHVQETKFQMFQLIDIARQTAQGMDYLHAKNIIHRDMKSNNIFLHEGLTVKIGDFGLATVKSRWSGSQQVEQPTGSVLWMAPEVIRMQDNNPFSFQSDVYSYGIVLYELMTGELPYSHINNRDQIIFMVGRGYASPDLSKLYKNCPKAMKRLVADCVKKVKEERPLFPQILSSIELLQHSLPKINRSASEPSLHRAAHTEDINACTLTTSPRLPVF
Sequence of Serine/threonine-protein kinase Nek9 (Homo sapiens) (Q8TD19 whole entry): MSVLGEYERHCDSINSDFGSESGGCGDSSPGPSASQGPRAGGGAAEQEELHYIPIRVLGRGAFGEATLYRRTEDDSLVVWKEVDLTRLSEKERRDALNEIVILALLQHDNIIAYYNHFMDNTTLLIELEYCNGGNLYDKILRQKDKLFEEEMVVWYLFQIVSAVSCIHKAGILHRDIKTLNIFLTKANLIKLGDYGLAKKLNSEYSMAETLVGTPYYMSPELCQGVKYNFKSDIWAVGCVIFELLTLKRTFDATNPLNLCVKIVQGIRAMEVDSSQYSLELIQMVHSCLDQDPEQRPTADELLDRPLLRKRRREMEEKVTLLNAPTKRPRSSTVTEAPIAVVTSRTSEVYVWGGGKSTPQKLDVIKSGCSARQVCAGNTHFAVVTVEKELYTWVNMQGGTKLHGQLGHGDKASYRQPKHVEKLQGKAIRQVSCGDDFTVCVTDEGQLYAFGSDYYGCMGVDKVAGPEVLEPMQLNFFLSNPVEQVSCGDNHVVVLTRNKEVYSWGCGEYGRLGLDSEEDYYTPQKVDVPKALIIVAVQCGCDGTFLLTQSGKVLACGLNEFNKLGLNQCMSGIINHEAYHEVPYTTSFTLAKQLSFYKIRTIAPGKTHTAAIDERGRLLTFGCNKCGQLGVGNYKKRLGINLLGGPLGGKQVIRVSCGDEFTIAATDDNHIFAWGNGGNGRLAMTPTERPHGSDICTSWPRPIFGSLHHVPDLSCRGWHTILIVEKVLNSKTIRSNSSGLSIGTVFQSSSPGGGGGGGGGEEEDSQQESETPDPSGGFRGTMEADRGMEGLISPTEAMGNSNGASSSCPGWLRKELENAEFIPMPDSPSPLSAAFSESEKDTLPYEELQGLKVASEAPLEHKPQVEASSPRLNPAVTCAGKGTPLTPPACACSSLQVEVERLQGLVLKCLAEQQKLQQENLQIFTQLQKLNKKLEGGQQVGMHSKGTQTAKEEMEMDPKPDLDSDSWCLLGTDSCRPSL
Sequence of Angiopoietin-1 receptor (Homo sapiens) (Q02763 whole entry): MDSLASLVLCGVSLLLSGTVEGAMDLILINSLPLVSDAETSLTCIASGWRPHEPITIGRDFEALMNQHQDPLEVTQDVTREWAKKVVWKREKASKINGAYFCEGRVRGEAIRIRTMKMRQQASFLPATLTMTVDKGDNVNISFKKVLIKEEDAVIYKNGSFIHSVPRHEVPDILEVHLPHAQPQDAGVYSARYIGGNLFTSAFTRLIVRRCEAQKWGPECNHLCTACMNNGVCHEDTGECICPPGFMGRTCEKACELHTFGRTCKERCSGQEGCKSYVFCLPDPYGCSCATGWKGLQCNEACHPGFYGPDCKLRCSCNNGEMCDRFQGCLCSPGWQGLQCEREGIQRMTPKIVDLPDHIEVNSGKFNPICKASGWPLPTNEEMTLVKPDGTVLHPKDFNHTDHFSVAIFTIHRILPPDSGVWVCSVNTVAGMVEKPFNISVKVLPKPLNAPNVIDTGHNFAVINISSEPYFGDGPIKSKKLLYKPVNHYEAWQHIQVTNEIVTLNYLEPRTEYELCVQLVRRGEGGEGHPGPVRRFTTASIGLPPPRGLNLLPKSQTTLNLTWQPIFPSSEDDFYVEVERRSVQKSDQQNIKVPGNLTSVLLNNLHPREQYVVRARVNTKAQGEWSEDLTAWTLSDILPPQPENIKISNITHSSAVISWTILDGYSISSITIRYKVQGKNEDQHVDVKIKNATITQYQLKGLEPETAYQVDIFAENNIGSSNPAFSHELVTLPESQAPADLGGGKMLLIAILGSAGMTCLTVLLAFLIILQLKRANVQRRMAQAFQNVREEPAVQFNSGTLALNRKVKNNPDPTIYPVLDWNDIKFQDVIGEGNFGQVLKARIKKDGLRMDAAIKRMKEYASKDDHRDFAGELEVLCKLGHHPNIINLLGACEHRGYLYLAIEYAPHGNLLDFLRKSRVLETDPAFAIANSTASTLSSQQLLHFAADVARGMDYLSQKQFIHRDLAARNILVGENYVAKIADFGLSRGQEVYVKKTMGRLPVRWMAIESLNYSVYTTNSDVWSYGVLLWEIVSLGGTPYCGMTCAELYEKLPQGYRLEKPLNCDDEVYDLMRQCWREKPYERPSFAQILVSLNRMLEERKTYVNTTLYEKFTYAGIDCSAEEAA
Sequence of Phosphatidylinositol 4,5-bisphosphate 3-kinase catalytic subunit alpha isoform (Homo sapiens) (P42336 whole entry, canonical isoform): as the sequence (P42336 whole entry E542K, canonical isoform) above, with K542E counted along it

SMILES | residual activity [1] | residual activity [2] | residual activity [3] | residual activity [4] | residual activity [5] | residual activity [6] | residual activity [7] | inhibition [8] | residual activity [9] | residual activity [10] | residual activity [11] | residual activity [12] | residual activity [13] | residual activity [14] | residual activity [15] | residual activity [16] | residual activity [17] | residual activity [18] | residual activity [19] | residual activity [20] | further results
CC(=O)N1CCC(c2ccc(C(=O)NC3=NCCN3)cc2C(F)(F)F)CC1 [BI 0054] | 100% | 96% | 100% | 100% | 97% | 92% | 87% | 9.64% | 100% | 100% | 100% | 100% | 100% | 100% | 63% | 100% | 92% | 100% | 100% | 100% | inhibition [21]: 4.92%; residual activity [22]: 100%; residual activity [23]: 100%; inhibition [24]: 9.81%; residual activity [25]: 100%; residual activity [26]: 100%; residual activity [27]: 100%; residual activity [28]: 100%; inhibition [29]: 0.267%; residual activity [30]: 100%; residual activity [31]: 100%; residual activity [32]: 97%; residual activity [33]: 94%; inhibition (Rattus norvegicus): -2.17%; inhibition [34]: 87.3%; residual activity [35]: 97%; residual activity [36]: 95%; residual activity [37]: 100%; residual activity [38]: 100%
CC(=O)N1CCC(c2ccc(C(=O)NC(=N)N)cc2C(F)(F)F)CC1 [BI 9627] | 100% | 100% | 82% | 93% | 92% | 100% | 95% | 34% | 100% | 95% | 100% | 100% | 100% | 100% | 79% | 100% | 95% | 100% | 97% | 96% | inhibition [21]: -0.34%; residual activity [22]: 100%; residual activity [23]: 100%; inhibition [24]: 7.11%; residual activity [25]: 100%; residual activity [26]: 100%; residual activity [27]: 100%; residual activity [28]: 100%; inhibition [29]: 1.25%; residual activity [30]: 100%; residual activity [31]: 96%; residual activity [32]: 100%; residual activity [33]: 100%; inhibition (Rattus norvegicus): 6.39%; inhibition [34]: 77.9%; residual activity [35]: 100%; residual activity [36]: 100%; residual activity [37]: 98%; residual activity [38]: 100%
